Assay results published in patent US20250230193A1, “CYCLIC COMPOUND HAVING SELECTIVE KRAS INHIBITORY EFFECT ON HRAS AND NRAS” (CHUGAI SEIYAKU KABUSHIKI KAISHA, priority 2022, published 2025).

Key:
[1] = target: GDP-bound HRAS wild-type protein (Homo sapiens, UniProt P01112); assay: Binding to HRAS by surface plasmon resonance (SPR), Single Cycle Kinetics; settings: KD ratio, GDP-bound HRAS wild-type vs GDP-bound KRAS wild-type, SPR
[2] = target: GDP-bound NRAS wild-type protein (Homo sapiens, UniProt P01111); assay: Binding to NRAS by surface plasmon resonance (SPR), Single Cycle Kinetics; settings: KD ratio, GDP-bound NRAS wild-type vs GDP-bound KRAS wild-type, SPR
Chain of GDP-bound NRAS wild-type protein (P01111 whole entry): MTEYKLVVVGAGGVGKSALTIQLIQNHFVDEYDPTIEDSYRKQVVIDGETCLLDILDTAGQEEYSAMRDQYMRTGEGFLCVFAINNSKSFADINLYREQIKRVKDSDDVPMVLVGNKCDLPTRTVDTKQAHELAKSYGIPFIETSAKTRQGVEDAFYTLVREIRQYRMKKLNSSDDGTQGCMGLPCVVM

Chain of GDP-bound HRAS wild-type protein (P01112 whole entry): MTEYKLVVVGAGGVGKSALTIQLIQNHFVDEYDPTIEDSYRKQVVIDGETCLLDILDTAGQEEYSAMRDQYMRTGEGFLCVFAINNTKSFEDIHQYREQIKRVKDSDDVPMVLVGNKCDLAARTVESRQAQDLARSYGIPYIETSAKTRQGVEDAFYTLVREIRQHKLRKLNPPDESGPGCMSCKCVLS

| Structure (SMILES) | HRAS/KRAS (ratio of KD value for HRAS to KD value for KRAS) [1] | NRAS/KRAS (ratio of KD value for NRAS to KD value for KRAS) [2] |
| --- | --- | --- |
| CCCOC[C@H]1C(=O)N[C@@H]([C@@H](C)CC)C(=O)N(C)CC(=O)N(C)[C@H]2C/C=C\CCN(C2=O)[C@@H](Cc2ccc(C(F)(F)F)cc2)C(=O)N(C)CC(=O)N[C@@H](CCc2cc(F)c(C(F)(F)F)c(F)c2)C(=O)N2C[C@@H](C)C[C@H]2C(=O)NC2(CCC2)C(=O)N(C)[C@@H](C2CCCC2)C(=O)N(C)[C@H](C(=O)N(C)CCC)CC(=O)N1C [PP2008] | A (a compound having 10 or more and less than 20 is denoted as A) | A (a compound having 10 or more and less than 20 is denoted as A) |
| CC[C@H](C)[C@@H]1NC(=O)[C@H](C2CCC2)N(C)C(=O)C[C@@H](C(=O)N(C)CC)N(C)C(=O)[C@H](C2CCCC2)N(C)C(=O)C2(CC(C)(C)C2)NC(=O)[C@@H]2C[C@H](C)CN2C(=O)[C@H](CCc2ccc(C(F)(F)F)c(OC)c2)NC(=O)CN(C)C(=O)[C@H](Cc2ccc(C(F)(F)F)cc2)N2CC/C=C\C[C@@H](C2=O)N(C)C(=O)CN(C)C1=O [PP2009] | A (a compound having 10 or more and less than 20 is denoted as A) | A (a compound having 10 or more and less than 20 is denoted as A) |
| CCCN(C)C(=O)[C@@H]1CC(=O)N(C)[C@@H](CC(F)F)C(=O)N[C@@H]([C@@H](C)CC)C(=O)N(C)CC(=O)N(C)[C@H]2C/C=C\CCN(C2=O)[C@@H](Cc2ccc(C(F)(F)F)cc2)C(=O)N(C)CC(=O)N[C@@H](CCc2ccc(C(F)(F)F)c(OC)c2)C(=O)N2C[C@H](OCC)C[C@H]2C(=O)NC2(CC(C)(C)C2)C(=O)N(C)[C@@H](C2CCCC2)C(=O)N1C [PP2010] | B (a compound having 3 or more and less than 10 is denoted as B) | A (a compound having 10 or more and less than 20 is denoted as A) |
| CC[C@H](C)[C@@H]1NC(=O)[C@H](C2CCC2)N(C)C(=O)C[C@@H](C(=O)N(C)C)N(C)C(=O)[C@H](C2CCCC2)N(C)C(=O)C2(CC(C)(C)C2)NC(=O)[C@@H]2C[C@H](C)CN2C(=O)[C@H](CCc2ccc(C(F)(F)F)c(OC)c2)NC(=O)CN(C)C(=O)[C@H](Cc2ccc(C(F)(F)F)cc2)N2CC/C=C\C[C@@H](C2=O)N(C)C(=O)CN(C)C1=O [PP2011] | A (a compound having 10 or more and less than 20 is denoted as A) | A (a compound having 10 or more and less than 20 is denoted as A) |
| CCCN(C)C(=O)[C@@H]1CC(=O)N(C)[C@@H](COCC)C(=O)N[C@@H]([C@@H](C)CC)C(=O)N(C)CC(=O)N(C)[C@H]2C/C=C\CCN(C2=O)[C@@H](Cc2ccc(C(F)(F)F)cc2)C(=O)N(C)CC(=O)N[C@@H](CCc2ccc(C(F)(F)F)c(OC)c2)C(=O)N2C[C@H](OCC)C[C@H]2C(=O)NC2(CC(C)(C)C2)C(=O)N(C)[C@@H](C2CCCC2)C(=O)N1C [PP2012] | A (a compound having 10 or more and less than 20 is denoted as A) | AA (a compound having 20 or more is denoted as AA) |
| CCCN(C)C(=O)[C@@H]1CC(=O)N(C)[C@@H](CC(F)F)C(=O)N[C@@H]([C@@H](C)CC)C(=O)N(C)CC(=O)N(C)[C@H]2C/C=C\CCN(C2=O)[C@@H](Cc2ccc(C(F)(F)F)cc2)C(=O)N(C)CC(=O)N[C@@H](CCc2ccc(C(F)(F)F)c(OC)c2)C(=O)N2C[C@H](OCC)C[C@H]2C(=O)NC2(CCC2)C(=O)N(C)[C@@H](C2CCCC2)C(=O)N1C [PP2013] | B (a compound having 3 or more and less than 10 is denoted as B) | A (a compound having 10 or more and less than 20 is denoted as A) |
| CCOC[C@H]1C(=O)N[C@@H]([C@@H](C)CC)C(=O)N(C)CC(=O)N(C)[C@H]2C/C=C\CCN(C2=O)[C@@H](Cc2ccc(C(F)(F)F)cc2)C(=O)N(C)CC(=O)N[C@@H](CCc2ccc(C(F)(F)F)c(OC)c2)C(=O)N2C[C@H](OCC)C[C@H]2C(=O)NC2(CC(C)(C)C2)C(=O)N(C)[C@@H](C2CCCC2)C(=O)N(C)[C@H](C(=O)N(C)CC)CC(=O)N1C [PP2014] | A (a compound having 10 or more and less than 20 is denoted as A) | A (a compound having 10 or more and less than 20 is denoted as A) |
| CCCN(C)C(=O)[C@@H]1CC(=O)N(C)[C@@H](COCC)C(=O)N[C@@H]([C@@H](C)CC)C(=O)N(C)CC(=O)N(C)[C@H]2C/C=C\CCN(C2=O)[C@@H](Cc2ccc(C(F)(F)F)cc2)C(=O)N(C)CC(=O)N[C@@H](CCc2ccc(C(F)(F)F)c(OC)c2)C(=O)N2C[C@H](OCC)C[C@H]2C(=O)NC2(CCC2)C(=O)N(C)[C@@H](C2CCCC2)C(=O)N1C [PP2015] | B (a compound having 3 or more and less than 10 is denoted as B) | A (a compound having 10 or more and less than 20 is denoted as A) |
| CCCOC[C@H]1C(=O)N[C@@H]([C@@H](C)CC)C(=O)N(C)CC(=O)N(C)[C@H]2C/C=C\CCN(C2=O)[C@@H](Cc2ccc(C(F)(F)F)cc2)C(=O)N(C)CC(=O)N[C@@H](CCc2ccc(C(F)(F)F)c(OC)c2)C(=O)N2C[C@H](OCC)C[C@H]2C(=O)NC2(CCC2)C(=O)N(C)[C@@H](C2CCCC2)C(=O)N(C)[C@H](C(=O)N(C)CC)CC(=O)N1C [PP2016] | A (a compound having 10 or more and less than 20 is denoted as A) | A (a compound having 10 or more and less than 20 is denoted as A) |
| CCCOC[C@H]1C(=O)N[C@@H]([C@@H](C)CC)C(=O)N(C)CC(=O)N(C)[C@H]2C/C=C\CCN(C2=O)[C@@H](Cc2ccc(C(F)(F)F)cc2)C(=O)N(C)CC(=O)N[C@@H](CCc2ccc(C(F)(F)F)c(OC)c2)C(=O)N2C[C@H](OCC)C[C@H]2C(=O)NC2(CCC2)C(=O)N(C)[C@@H](C2CCCC2)C(=O)N(C)[C@H](C(=O)N(C)CCC)CC(=O)N1C [PP2017] | A (a compound having 10 or more and less than 20 is denoted as A) | A (a compound having 10 or more and less than 20 is denoted as A) |
| CCCN(C)C(=O)[C@@H]1CC(=O)N(C)[C@@H](CCOC)C(=O)N[C@@H]([C@@H](C)CC)C(=O)N(C)CC(=O)N(C)[C@H]2C/C=C\CCN(C2=O)[C@@H](Cc2ccc(C(F)(F)F)cc2)C(=O)N(C)CC(=O)N[C@@H](CCc2ccc(C(F)(F)F)c(OC)c2)C(=O)N2C[C@H](OCC)C[C@H]2C(=O)NC2(CCC2)C(=O)N(C)[C@@H](C2CCCC2)C(=O)N1C [PP2018] | B (a compound having 3 or more and less than 10 is denoted as B) | A (a compound having 10 or more and less than 20 is denoted as A) |
| CCCN(C)C(=O)[C@@H]1CC(=O)N(C)[C@@H](C(C)C)C(=O)N[C@@H]([C@@H](C)CC)C(=O)N(C)CC(=O)N(C)[C@H]2C/C=C\CCN(C2=O)[C@@H](Cc2ccc(C(F)(F)F)cc2)C(=O)N(C)CC(=O)N[C@@H](CCc2ccc(C(F)(F)F)c(OC)c2)C(=O)N2C[C@H](OCC)C[C@H]2C(=O)NC2(CCC2)C(=O)N(C)[C@@H](C2CCCC2)C(=O)N1C [PP2020] | A (a compound having 10 or more and less than 20 is denoted as A) | A (a compound having 10 or more and less than 20 is denoted as A) |
| CCO[C@@H]1C[C@H]2C(=O)NC3(CCC3)C(=O)N(C)[C@@H](C3CCCC3)C(=O)N(C)[C@H](C(=O)N(C)CC)CC(=O)N(C)[C@@H](C3CC3)C(=O)N[C@@H]([C@@H](C)CC)C(=O)N(C)CC(=O)N(C)[C@H]3C/C=C\CCN(C3=O)[C@@H](Cc3ccc(C(F)(F)F)cc3)C(=O)N(C)CC(=O)N[C@@H](CCc3ccc(C(F)(F)F)c(OC)c3)C(=O)N2C1 [PP2021] | B (a compound having 3 or more and less than 10 is denoted as B) | A (a compound having 10 or more and less than 20 is denoted as A) |
| CCO[C@@H]1C[C@H]2C(=O)NC3(CCC3)C(=O)N(C)[C@@H](C3CCCC3)C(=O)N(C)[C@H](C(=O)N(C)CC)CC(=O)N(C)[C@@H](C3CCC3)C(=O)N[C@@H]([C@@H](C)CC)C(=O)N(C)CC(=O)N(C)[C@H]3C/C=C\CCN(C3=O)[C@@H](Cc3ccc(C(F)(F)F)cc3)C(=O)N(C)CC(=O)N[C@@H](CCc3ccc(C(F)(F)F)c(OC)c3)C(=O)N2C1 [PP2022] | A (a compound having 10 or more and less than 20 is denoted as A) | A (a compound having 10 or more and less than 20 is denoted as A) |
| CCCN(C)C(=O)[C@@H]1CC(=O)N(C)[C@@H](C2CCC2)C(=O)N[C@@H]([C@@H](C)CC)C(=O)N(C)CC(=O)N(C)[C@H]2C/C=C\CCN(C2=O)[C@@H](Cc2ccc(C(F)(F)F)cc2)C(=O)N(C)CC(=O)N[C@@H](CCc2ccc(C(F)(F)F)c(OC)c2)C(=O)N2C[C@H](OCC)C[C@H]2C(=O)NC2(CCC2)C(=O)N(C)[C@@H](C2CCCC2)C(=O)N1C [PP2023] | B (a compound having 3 or more and less than 10 is denoted as B) | A (a compound having 10 or more and less than 20 is denoted as A) |
| CCCN(C)C(=O)[C@@H]1CC(=O)N(C)[C@@H](CC(F)F)C(=O)N[C@@H]([C@@H](C)CC)C(=O)N(C)CC(=O)N(C)[C@H]2C/C=C\CCN(C2=O)[C@@H](Cc2ccc(C(F)(F)F)cc2)C(=O)N(C)CC(=O)N[C@@H](CCc2ccc(C(F)(F)F)c(OC)c2)C(=O)N2C[C@@H](C)C[C@H]2C(=O)NC2(CCC2)C(=O)N(C)[C@@H](C2CCCC2)C(=O)N1C [PP2024] | B (a compound having 3 or more and less than 10 is denoted as B) | A (a compound having 10 or more and less than 20 is denoted as A) |
